In patent US10981894B2, “Melanocortin subtype-2 receptor (MC2R) antagonists and uses thereof” (Crinetics Pharmaceuticals, Inc., priority 2018, dated 2021):

The compounds below were run against hMC2 receptor (Homo sapiens, UniProt Q01718) (assay: hMC2 membrane binding assay ([125I]ACTH (1-39) Tyr23, SPA)). Settings: crude hMC2R membranes from CRE-bla-CHO-K1 cells expressing hMC2 receptor and hMRAP; [125I]ACTH (1-39) Tyr23 0.2 nM; 1.5 hours at room temperature; read-out: MC2R binding potency.
Parameters: scale not given here
Procedure, shortened: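 CRE-bla-CHO-K1 membranes co-expressing hMC2 receptor and hMRAP, preincubated with WGA PVT SPA beads in pH 7.4 HEPES/MgCl2/CaCl2/0.2% BSA buffer. Compounds (typically 0–10,000 nM final) compete with 0.2 nM [125I]ACTH(1-39) Tyr23 for 1.5 h at room temperature. SPA counts give Ki by non-linear regression.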

hMC2 receptor, sequence (Q01718 whole entry): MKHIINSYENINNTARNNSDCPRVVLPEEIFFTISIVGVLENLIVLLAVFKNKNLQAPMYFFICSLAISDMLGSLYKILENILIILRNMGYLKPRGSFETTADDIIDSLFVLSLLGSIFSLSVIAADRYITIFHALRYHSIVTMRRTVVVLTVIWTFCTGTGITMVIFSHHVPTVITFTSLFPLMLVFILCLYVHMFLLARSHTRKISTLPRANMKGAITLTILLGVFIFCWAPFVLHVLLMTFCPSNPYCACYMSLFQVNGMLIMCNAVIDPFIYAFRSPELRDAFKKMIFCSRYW
hMC2 receptor, sequence (Q8TCY5 whole entry partner): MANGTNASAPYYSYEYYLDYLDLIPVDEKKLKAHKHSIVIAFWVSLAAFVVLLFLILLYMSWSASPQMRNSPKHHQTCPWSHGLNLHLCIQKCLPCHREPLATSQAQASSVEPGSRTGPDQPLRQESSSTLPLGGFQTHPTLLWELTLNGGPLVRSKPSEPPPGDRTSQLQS

`CCOc1ccccc1-c1ccc(N2CCN(C(=O)n3ccc4cc(F)cc(C#N)c43)C[C@H]2CC)c(C(=O)N[C@@H]2CCN(C)C2)n1` [Compound 1-439, 3-[(2R)-4-(7-cyano-5-fluoro-1H-indole-1l-carbonyl)-2-ethylpiperazin-1-yl]-6-(2-ethoxyphenyl)-N-[(3R)-1-methylpyrrolidin-3-yl]pyridine-2-carboxamide] and `CCOc1ccccc1-c1ccc(N2CCN(C(=O)N3CCc4cccc(C(F)(F)F)c43)C[C@H]2CC)c(C(=O)N[C@H]2CCN(C)C2)n1` [Compound 1-402, 6-(2-ethoxyphenyl)-3-[(2R)-2-ethyl-4-[7-(trifluoromethyl)-2,3-dihydro-1H-indole-1-carbonyl]piperazin-1-yl]-N-[(3S)-1-methylpyrrolidin-3-yl]pyridine-2-carboxamide] cannot be ordered by Ki: less than 10 nM for the first, less than 10 nM for the second.

`CCOc1ncccc1-c1ccc(N2CCN(C(=O)c3ccc(Cl)cc3C(F)F)C[C@H]2CC)c(C(=O)N[C@@H]2CCNC2)c1F` [Compound 1-190, 6-[(2R)-4-[4-chloro-2-(difluoromethyl)benzoyl]-2-ethylpiperazin-1-yl]-3-(2-ethoxypyridin-3-yl)-2-fluoro-N-[(3R)-pyrrolidin-3-yl]benzamide] and `CCOc1ncccc1-c1ccc(N2CCN(C(=O)c3ccc(F)cc3C(F)(F)F)C[C@H]2CC)c(C(=O)N[C@@H]2CCNC2)c1F` [Compound 1-111, 3-(2-ethoxypyridin-3-yl)-6-[(2R)-2-ethyl-4-[4-fluoro-2-(trifluoromethyl)benzoyl]piperazin-1-yl]-2-fluoro-N-[(3R)-pyrrolidin-3-yl]benzamide] cannot be ordered by Ki: less than 10 nM for the first, less than 10 nM for the second.

`CCOc1ncccc1-c1ccc(N2CCN(C(=O)c3ccc(OC)cc3C(F)(F)F)C[C@H]2CC)c(C(=O)NCCNC)c1F` [Compound 1-155, 3-(2-ethoxypyridin-3-yl)-6-[(2R)-2-ethyl-4-[4-methoxy-2-(trifluoromethyl)benzoyl]piperazin-1-yl]-2-fluoro-N-[2-(methylamino)ethyl]benzamide] and `CCOc1ncccc1-c1ccc(N2CCN(C(=O)c3ccc(C)cc3Cl)C[C@H]2CC)c(C(=O)NCCNC)c1F` [Compound 1-113, 6-[(2R)-4-(2-chloro-4-methylbenzoyl)-2-ethylpiperazin-1-yl]-3-(2-ethoxypyridin-3-yl)-2-fluoro-N-[2-(methylamino)ethyl]benzamide] cannot be ordered by Ki: less than 10 nM for the first, less than 10 nM for the second.

`CCOc1ncccc1-c1ccc(N2CCN(C(=O)c3ccc(Cl)cc3C(F)(F)F)C[C@H]2CC)c(C(=O)NCCc2ncc[nH]2)c1F` [Compound 1-116, 6-[(2R)-4-[4-chloro-2-(trifluoromethyl)benzoyl]-2-ethylpiperazin-1-yl]-3-(2-ethoxypyridin-3-yl)-2-fluoro-N-[2-(1H-imidazol-2-yl)ethyl]benzamide] and `CCOc1ncccc1-c1ccc(N2CCN(C(=O)c3ccc(Cl)cc3C(F)(F)F)C[C@H]2CC)c(C(=O)NC2CNC2)n1` [Compound 1-211, N-(azetidin-3-yl)-5-[(2R)-4-[4-chloro-2-(trifluoromethyl)benzoyl]-2-ethylpiperazin-1-yl]-2′-ethoxy-[2,3′-bipyridine]-6-carboxamide] cannot be ordered by Ki: less than 10 nM for the first, less than 10 nM for the second.

`CCOc1ncccc1-c1ccc(N2CCN(C(=O)C3(C(F)(F)F)CCC3)C[C@H]2CC)c(C(=O)N[C@@H]2CCN(C)C2)n1` [Compound 1-283, 2′-ethoxy-5-[(2R)-2-ethyl-4-[1-(trifluoromethyl)cyclobutanecarbonyl]piperazin-1-yl]-N-[(3R)-1-methylpyrrolidin-3-yl]-[2,3′-bipyridine]-6-carboxamide] and `CCOc1ncccc1-c1ccc(N2CCN(C(=O)C34CCC(C(F)(F)F)(CC3)C4)C[C@H]2CC)c(C(=O)N[C@@H]2CCN(C)C2)n1` [Compound 1-385, 2′-ethoxy-5-[(2R)-2-ethyl-4-[4-(trifluoromethyl)bicyclo[2.2.1]heptane-1-carbonyl]piperazin-1-yl]-N-[(3R)-1-methylpyrrolidin-3-yl]-[2,3′-bipyridine]-6-carboxamide] cannot be ordered by Ki: less than 10 nM for the first, less than 10 nM for the second.

`CCOc1ncccc1-c1ccc(N2CCN(C(=O)c3ccc(Cl)cc3C(F)(F)F)C[C@H]2CC)c(C(=O)NCC2=NCCN2)n1` [Compound 1-226, 5-[(2R)-4-[4-chloro-2-(trifluoromethyl)benzoyl]-2-ethylpiperazin-1-yl]-N-[(4,5-dihydro-1H-imidazol-2-yl)methyl]-2′-ethoxy-[2,3′-bipyridine]-6-carboxamide] and `CCOc1ncccc1-c1ccc(N2CCN(C(=O)c3ccc(Cl)cc3C(F)(F)F)C[C@H]2CC)c(C(=O)N[C@@H]2CN3CCC2CC3)n1` [Compound 1-398, N-[(3S)-1-azabicyclo[2.2.2]octan-3-yl]-5-[(2R)-4-[4-chloro-2-(trifluoromethyl)benzoyl]-2-ethylpiperazin-1-yl]-2′-ethoxy-[2,3′-bipyridine]-6-carboxamide] cannot be ordered by Ki: less than 10 nM for the first, less than 10 nM for the second.

`CCOc1ncccc1-c1ccc(N2CCN(C(=O)c3ccc(Cl)cc3C#N)C[C@H]2CC)c(C(=O)NCCNC)n1` [Compound 1-171, 5-[(2R)-4-(4-chloro-2-cyanobenzoyl)-2-ethylpiperazin-1-yl]-2′-ethoxy-N-[2-(methylamino)ethyl]-[2,3′-bipyridine]-6-carboxamide] and `CCOc1ncccc1-c1ccc(N2CCN(C(=O)N3CCc4cc(F)cc(C#N)c43)C[C@H]2CC)c(C(=O)NC2CN(C)C2)n1` [Compound 1-422, 5-[(2R)-4-(7-cyano-5-fluoro-2,3-dihydro-1H-indole-1-carbonyl)-2-ethylpiperazin-1-yl]-2′-ethoxy-N-(1-methylazetidin-3-yl)-[2,3′-bipyridine]-6-carboxamide] cannot be ordered by Ki: less than 10 nM for the first, less than 10 nM for the second.

`CCOc1ncccc1-c1ccc(N2CCN(C(=O)c3ccc(OC)nc3C(F)(F)F)C[C@H]2CC)c(C(=O)N[C@@H]2CCNC2)c1F` [Compound 1-271, 3-(2-ethoxypyridin-3-yl)-6-[(2R)-2-ethyl-4-[6-methoxy-2-(trifluoromethyl)pyridine-3-carbonyl]piperazin-1-yl]-2-fluoro-N-[(3R)-pyrrolidin-3-yl]benzamide] and `CCOc1ncccc1-c1ccc(N2CCN(C(=O)c3ccc(Cl)cc3C(F)(F)F)C[C@H]2CC)c(C(=O)N[C@@H]2CCNC2)c1` [Compound 1-45, 2-[(2R)-4-[4-chloro-2-(trifluoromethyl)benzoyl]-2-ethylpiperazin-1-yl]-5-(2-ethoxypyridin-3-yl)-N-[(3R)-pyrrolidin-3-yl]benzamide] cannot be ordered by Ki: less than 10 nM for the first, less than 10 nM for the second.

`CCOc1ccccc1-c1ccc(N2CCN(C(=O)C3(C(F)(F)F)CCCC3)C[C@H]2CC)c(C(=O)NC2CN(C)C2)n1` [Compound 1-399, 6-(2-ethoxyphenyl)-3-[(2R)-2-ethyl-4-[1-(trifluoromethyl)cyclopentanecarbonyl]piperazin-1-yl]-N-(1-methylazetidin-3-yl)pyridine-2-carboxamide] and `CCOc1ccccc1-c1ccc(N2CCN(C(=O)C3(C(F)(F)F)CCCC3)C[C@H]2CC)c(C(=O)N[C@@H]2CCNC2)n1` [Compound 1-304, 6-(2-ethoxyphenyl)-3-[(2R)-2-ethyl-4-[1-(trifluoromethyl)cyclopentanecarbonyl]piperazin-1-yl]-N-[(3R)-pyrrolidin-3-yl]pyridine-2-carboxamide] cannot be ordered by Ki: less than 10 nM for the first, less than 10 nM for the second.

Compared with `CCOc1ccccc1-c1ccc(N2CCN(C(=O)c3ccc(Cl)cc3Cl)C[C@H]2CC)c(C(=O)NCCN)c1` [Compound 1-15, (R)-N-(2-aminoethyl)-4-(4-(2,4-dichlorobenzoyl)-2-ethylpiperazin-1-yl)-2′-ethoxy-[1,1′-biphenyl]-3-carboxamide], `CC[C@@H]1CN(C(=O)c2ccc(C(F)(F)F)cc2Cl)CCN1c1ccc(-c2cccc(F)c2Cl)cc1C(=O)NCCN` [Compound 1-9, N-(2-aminoethyl)-2′-chloro-4-[(2R)-4-[2-chloro-4-(trifluoromethyl)benzoyl]-2-ethylpiperazin-1-yl]-3′-fluoro-[1,1′-biphenyl]-3-carboxamide] is higher in Ki: less than 10 nM for the first, 10 to 100 nM for the second.

Compared with `CCOc1ncccc1-c1ccc(N2CCN(C(=O)OC3(CC)CCCC3)C[C@H]2CC)c(C(=O)N[C@@H]2CCN(C)C2)n1` [Compound 1-397, 1-ethylcyclopentyl (3R)-4-(2′-ethoxy-6-{[(3R)-1-methylpyrrolidin-3-yl]carbamoyl}-[2,3′-bipyridin]-5-yl)-3-ethylpiperazine-1-carboxylate], `CCOc1ncccc1-c1ccc(N2CCN(C(=O)N3CCC[C@H]3C(F)(F)F)C[C@H]2CC)c(C(=O)NC[C@H]2CCN2C)n1` [Compound 1-386, 2′-ethoxy-5-[(2R)-2-ethyl-4-[(2S)-2-(trifluoromethyl)pyrrolidine-1-carbonyl]piperazin-1-yl]-N-{[(2R)-1-methylazetidin-2-yl]methyl}-[2,3′-bipyridine]-6-carboxamide] is higher in Ki: less than 10 nM for the first, 10 to 100 nM for the second. The first binds more tightly here.

`CCOc1ncccc1-c1ccc(N2CCN(C(=O)c3ccc(Cl)cc3N3CCNCC3)C[C@H]2CC)c(C(=O)N[C@@H]2CCNC2)c1` [Compound 1-90, 2-[(2R)-4-[4-chloro-2-(piperazin-1-yl)benzoyl]-2-ethylpiperazin-1-yl]-5-(2-ethoxypyridin-3-yl)-N-[(3R)-pyrrolidin-3-yl]benzamide] and `CCOc1ncccc1-c1ccc(N2CCN(C(=O)c3ccc(Cl)cc3C(F)(F)F)C[C@H]2CC)c(C(=O)N[C@H]2CCCNC2)c1` [Compound 1-100, 2-[(2R)-4-[4-chloro-2-(trifluoromethyl)benzoyl]-2-ethylpiperazin-1-yl]-5-(2-ethoxypyridin-3-yl)-N-[(3 S)-piperidin-3-yl]benzamide] cannot be ordered by Ki: less than 10 nM for the first, less than 10 nM for the second.

For `CCOc1ccccc1-c1ccc(N2CCN(C(=O)N3CCC[C@@H]3C(C)(C)C)C[C@H]2CC)c(C(=O)N[C@@H]2CCNC2)n1` [Compound 1-356, 3-[(2R)-4-[(2R)-2-tert-butylpyrrolidine-1-carbonyl]-2-ethylpiperazin-1-yl]-6-(2-ethoxyphenyl)-N-[(3R)-pyrrolidin-3-yl]pyridine-2-carboxamide], the Ki was less than 10 nM.
